Experimental data reported in ChEMBL document CHEMBL1135617, “Dicarboxylic acid bis(L-prolyl-pyrrolidine) amides as prolyl oligopeptidase inhibitors” (J Med Chem, 2002).

Key:
Prolyl endopeptidase [1] = target: T1, Prolyl endopeptidase (Sus scrofa, UniProt P23687); assay: In vitro inhibitory activity against prolyl oligopeptidase (POP) from pig brain; value ranges from (38-110)
Prolyl endopeptidase [2] = target: T1, Prolyl endopeptidase; assay: In vitro inhibitory activity against prolyl oligopeptidase (POP) from pig brain; value ranges from (44-110)
Prolyl endopeptidase [3] = target: T1, Prolyl endopeptidase; assay: In vitro inhibitory activity against prolyl oligopeptidase (POP) from pig brain; value ranges from (7800-54000)
Prolyl endopeptidase [4] = target: T1, Prolyl endopeptidase; assay: In vitro inhibitory activity against prolyl oligopeptidase (POP) from pig brain; value ranges from (59 - 100)
Prolyl endopeptidase [5] = target: T1, Prolyl endopeptidase
Prolyl endopeptidase [6] = target: T1, Prolyl endopeptidase; assay: In vitro inhibitory activity against prolyl oligopeptidase (POP) from pig brain; value ranges from (72-92)

T1 sequence (P23687 whole entry): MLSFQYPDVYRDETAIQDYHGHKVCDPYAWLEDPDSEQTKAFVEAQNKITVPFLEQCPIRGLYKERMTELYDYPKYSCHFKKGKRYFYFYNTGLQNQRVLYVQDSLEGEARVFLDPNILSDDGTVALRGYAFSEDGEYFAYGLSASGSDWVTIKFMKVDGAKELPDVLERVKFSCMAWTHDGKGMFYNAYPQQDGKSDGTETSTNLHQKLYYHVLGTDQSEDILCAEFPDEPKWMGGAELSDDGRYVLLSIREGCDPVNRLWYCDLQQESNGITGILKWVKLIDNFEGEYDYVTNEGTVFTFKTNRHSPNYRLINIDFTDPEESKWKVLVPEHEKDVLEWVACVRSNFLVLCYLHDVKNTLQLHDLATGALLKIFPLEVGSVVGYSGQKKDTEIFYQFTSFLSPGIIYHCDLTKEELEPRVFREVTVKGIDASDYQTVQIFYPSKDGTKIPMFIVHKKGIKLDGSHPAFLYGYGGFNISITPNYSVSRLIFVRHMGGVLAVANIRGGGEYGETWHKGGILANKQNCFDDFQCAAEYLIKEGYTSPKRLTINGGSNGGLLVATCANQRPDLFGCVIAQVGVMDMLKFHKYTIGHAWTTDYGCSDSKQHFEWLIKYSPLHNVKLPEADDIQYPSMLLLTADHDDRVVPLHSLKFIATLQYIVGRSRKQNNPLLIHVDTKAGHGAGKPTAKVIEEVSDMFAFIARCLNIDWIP

## O=C([C@@H]1CCCN1C(=O)c1ccccc1)N1CCCC1
Prolyl endopeptidase [1]
  IC50: 66 nM

## O=C(C1CCCN1C(=O)CCCCC(=O)N1CCC[C@H]1C(=O)N1CCCC1)N1CCCC1 (stereo partly specified)
Prolyl endopeptidase [2]
  IC50: 68 nM

## O=C(C1CCCN1C(=O)c1ccccc1C(=O)N1CCC[C@H]1C(=O)N1CCCC1)N1CCCC1 (stereo partly specified)
Prolyl endopeptidase [3]
  IC50: 21 µM

## O=C(C1CCCN1C(=O)CCC(=O)N1CCC[C@H]1C(=O)N1CCCC1)N1CCCC1 (stereo partly specified)
Prolyl endopeptidase [4]
  IC50: 77 nM

## O=C(CO)[C@@H]1CCCN1C(=O)[C@@H]1CCCN1C(=O)c1cccc(C(=O)N2CCCC2C(=O)N2CCCC2)c1 (stereo partly specified)
Prolyl endopeptidase [5]
  IC50: 0.39 nM

## O=C(C1CCCN1C(=O)c1ccc(C(=O)N2CCC[C@H]2C(=O)N2CCCC2)cc1)N1CCCC1 (stereo partly specified)
Prolyl endopeptidase [6]
  IC50: 81 nM
